Measured values from patent US20230321063A1, “COMPOSITIONS AND METHODS TO REDUCE NEUROINFLAMMATION” (Seattle Children's Hospital d/b/a Seattle Children's …, priority 2020, published 2023).

What was measured:
Ndufs4(KO) mice [1] = test: Longitudinal assessment of neurological disease symptoms (clasping, ataxia, circling); type: in vivo, mouse
Experimental: Longitudinal assessments of neurological disease symptoms. Clasping, ataxia, and circling were assessed by visual scoring, as previously described. As disease progresses in the Ndufs4(KO) mice animals display intermittent/transient improvement of symptoms. […] For observational assessments, lab-wide quality control discussions occurred frequently to ensure consistency between technicians/researchers. Technicians contributed equally to each treatment group to minimize any potential bias between individuals.

Ndufs4(KO) mice [2] = test: Body weight, growth and cachexia onset; type: in vivo, mouse
Experimental: Ndufs4(+/−) mice were bred to produce Ndufs4(KO) (Ndufs4(−/−)) offspring. Mice were weaned at 20-21 days of age. Ndufs4(KO) animals were housed with a minimum of one control littermate for warmth and stimulation. Mice were weighed, and health assessed, a minimum of 3 times per week, every other day (daily for IP injected mice, see herein). Where longitudinal blood point-of-care data was collected, this was performed during these health checks. Wetted chow in a dish on the bottom of each cage, and in-cage water bottles, were provided to all cages housing Ndufs4(KO) mice following the onset of disease so that the ability to find or reach food or water was not a limiting factor for survival.
Cachexia in FIG. 4H and FIG. 6E is the day of life when weight peaks prior to the progressive weight loss which occurs in untreated Ndufs4(KO) animals.

Ndufs4(KO) mice [3] = test: Point-of-care blood glucose by age; type: in vivo, mouse
Source text: (§1) Point-of-care glucose and lactate testing. Blood glucose and lactate measurements were collected using point-of-care meters (Prodigy Autocode® glucose meter, product #51850-3466188, Prodigy® Diabetes Care, LLC, Charlotte, NC; lactate assay meter, product #40828, Nova Biomedical, Waltham, MA) and the tail-prick method, as previously described (Stokes et al. Elife 2021; 10:e65400).

[4] = tested on: microglia in mixed neonatal brain-cell cultures; test: Fraction of microglia in mixed primary brain cultures (Iba1 staining); type: cell-based, mouse
Experimental: Mixed brain cell culturing and staining. Briefly, using sterile technique, brains were removed from neonatal pups into ice-cold HBSS (Gibco cat. #14025076). Brains were washed three times in cold PBS. After the third wash, brains were minced using surgical scissors into small, fine pieces. The minced brain was centrifuged at 100 g for 5 min. Once pelleted, PBS was removed and 0.05% trypsin/EDTA (Gibco) was added. The tissue in trypsin/EDTA was then incubated at 37° C. with gentle shaking for 15-30 min, with intermittent mixing and supplemental mincing, until the solution was homogenous and without tissue segments. After incubation, the minced tissue was placed back into the centrifuge at 100 g 5 min. Pellet was washed 3× with cold PBS before adding fresh media to each tube. The tissue was further dissociated using 1000 μL pipet until the solution became cloudy. The sample was washed through a sterile 70-micron cell strainer (Corning) into a 50 mL falcon tube, then plated onto T75 poly-d-lysine coated Nunclon flasks (Nunc EasyFlask132704) at a ratio of one brain to two flasks. After 24 hours, dead cell/debris were washed and media replaced. Cells were then grown for 1 additional day, split onto multi-well plates with poly-d-lysine coated coverslips (Cellware 12 mm round coverslips) at 25% confluence with ABI-009 or pexidartinib (for dose-response) added. […]

Ndufs4(KO) mice [5] = test: Respiratory measurements by whole-body plethysmography; type: in vivo, mouse; details: 300 mg/kg/day
Experimental: Respiratory measurements. Breathing parameters were recorded from alert, unrestrained, adult (P60) mice using whole-body plethysmography. Paired 300 ml recording and reference chambers were continuously ventilated (150 ml/min) with either normal air (79% nitrogen and 21% oxygen) or a hypercapnic gas mixture (74% nitrogen, 21% oxygen, and 5% CO2). Pressure differences between the recording and reference chambers were measured (Buxco Respiratory Products) and digitized (Axon Instruments) to visualize respiratory pattern, and simultaneous video recordings were performed to differentiate resting breathing activity from exploratory sniffing and grooming behaviors. Untreated and treated (pexidartinib 300 mg/kg/day) control and Ndufs4(KO) mice were allowed to acclimate to the chambers for 30-40 min prior to acquisition of 35 min of respiratory activity in normal air. The respiratory response to hypercapnia was then tested by ventilating the chambers with hypercapnic gas for 15 min. Respiratory frequency, and breath-to-breath irregularity scores (irreg.score=ABS((N-(N−1))/N)) of frequency and amplitude (peak inspiratory airflow) were quantified during periods of resting breathing (pClamp10 software). During hypercapnic challenges, only data during the final 5 min of the 15 min period were analyzed. […]

[6] = tested on: control and Ndufs4(KO) mice; test: Glucose tolerance test (GTT) and glucose induced lactate test; type: in vivo, mouse; details: 2 g/kg glucose IP; pexidartinib 300 mg/kg/d in chow, IPI-549 100 mg/kg/d in chow, rapamycin (ABI-009) 8 mg/kg/d IP
Source text: as §1
Glucose tolerance test (GTT) and glucose induced lactate test. Prior to performing the GTT, mice were fasted for 4 hours, from 10 AM-2 PM. The fasting duration was limited to 4 hours given the sensitivity of untreated Ndufs4(KO) animals to hypoglycemia and related sequelae (dysregulation of body temperature, hypoglycemia induced seizure, etc.). For the ABI-009 cohort, mice received their daily ABI-009 treatment at the start of this fasting period. At the end of the 4 hour fast, baseline blood glucose and lactate values were collecting using point-of-care meters and the tail-prick method. Mice were then injected by IP with 2 g/kg dextrose (10 microliters/gram body weight of 200 mg/mL glucose in 1×PBS, 0.2 micron sterile filtered) using an insulin syringe (31-gauge, 6 mm length, 3/10 cc, BD Veo Ultra-Fine needle). Glucose and lactate levels were measured using a minimally invasive tail-prick method at designated timepoints post-injection.

[7] = cited from earlier work

FC(F)(F)c1ccc(CNc2ccc(Cc3c[nH]c4ncc(Cl)cc34)cn2)cn1 [pexidartinib, 5-[(5-chloro-1H-pyrrolo[2,3-b]pyridin-3-yl)methyl]-N-[[6-(trifluoromethyl)pyridin-3-yl]methyl]pyridin-2-amine]
clasping, ataxia, circling endpoints compared with mTOR inhibition (Ndufs4(KO) mice [1]; 200 mg/kg/day): roughly matched mTOR inhibition | clasping, ataxia, circling endpoints compared with mTOR inhibition (Ndufs4(KO) mice [1]; 300 mg/kg/day): performed substantially better | neurologic disease onset and severity as measured by clasping (Ndufs4(KO) mice [1]; 100, 200, and 300 mg/kg/day): affect neurologic disease onset and severity | onset of symptoms: forelimb clasping, ataxia, and circling (Ndufs4(KO) mice [1]; Ndufs4(KO) mice vs untreated): dose-dependently delayed the onset and reduced overall incidence | cachexia (Ndufs4(KO) mice [2]): prevented | hypoglycemia (blood glucose) (Ndufs4(KO) mice [3]): prevented | maximum effect on microglia [4]: nearly complete depletion of microglia | fraction of microglia present in mixed neonatal brain-cell cultures ([4]; dose-response, fixed on day 7): dose-dependently reduced | respiratory dysfunction in normal air (Ndufs4(KO) mice [5]; P60): completely rescued | respiratory response to increased CO2 (Ndufs4(KO) mice [5]; P60, 5% CO2): completely rescued | blood lactate spike in response to a glucose bolus [6]: prevented this spike in blood lactate | liver damage ([7]; patients): known to cause liver damage | hair color in humans ([7]; reports in humans): hair whitening in humans
